Data set [1] concerns PC-3 (prostate adenocarcinoma). The data set is described as follows: MTT viability assay, PC-3. Format: cell-based. To be noted: PC-3, 72 h, MTT; for CC50: read-out: LC50 (the source's name). How it is done: (§1) The novel compounds were tested against a panel of different cancer lines: PC-3 (prostate adenocarcinoma), MCF7 (mammary adenocarcinoma), HTB-54 (lung carcinoma), K-562 (chronic myelogenous leukemia) and HT-29 (colorectal adenocarcinoma). Two non-malignant cell lines, BEAS-2B (bronchial epithelial) and 184B5 (mammary epithelial) were also included to evaluate the toxicity of the novel synthesized compounds. The antiproliferative activity was measured with the [3-(4,5-dimethylthiazol-2-yl)-2,5-diphenyltetrazolium bromide] (MTT) assay after 72 h treatment. Six concentrations ranging from 0.1 to 100 μM were tested. MSA is largely known as the main CH3SeH putative precursor and was therefore included as positive control. The following parameters were calculated: GI50 (concentration which reduces the growth by 50%), TGI (concentration completely inhibiting growth) and LC50 (concentration that kills 50% of the cells).
(§2) All cells were purchased from the American Type Culture Collection (ATCC, Barcelona, Spain). HT-29 (colorectal adenocarcinoma), HTB-54 (grade III lung carcinoma), MCF7 (mammary adenocarcinoma), PC-3 (grade IV prostate adenocarcinoma) and K-562 (chronic myelogenous leukemia) were cultured in RPMI (Gibco, Madrid, Spain), 10% FBS (Gibco), 100 units/mL penicillin and 100 μg/mL streptomycin (Gibco). BEAS-2B cell line (normal epithelial lung) was cultured in DMEM (Gibco), 10% FBS, 100 units/mL penicillin and 100 μg/mL streptomycin. 184B5 (normal mammary gland) cell line was cultured in DMEM:F12 supplemented with 5% FBS, 1 × ITS (Lonza, Barcelona, Spain), 100 nM hydrocortisone (Sigma-Aldrich), 2 mM sodium pyruvate (Lonza), 20 ng/mL EGF (Sigma-Aldrich), 0.3 nM trans-retinoic acid (Sigma-Aldrich), 100 units/mL penicillin and 100 µg/mL streptomycin. Cells were cultured at 37 °C under 5% CO2.
(§3) Cell viability after treatment was assessed by the well-known 3-(4,5-dimethyl-thiazol-2-yl)-2,5-diphenyltetrazolium bromide (MTT, Sigma-Aldrich) assay. Briefly, 10,000 cells were seeded in 96-well plates, treated and incubated for 72 h. Dilutions of the compounds in cell medium were freshly prepared from a 0.01 M stock in DMSO. After treatment, 50 μL of MTT solution in PBS (2 mg/mL) were added and cells were incubated for 4 h. Medium was removed and 150 μL of DMSO was added to dissolve the formed formazan crystals. Absorbance was read at 550 nm in a microplate absorbance reader (Sunrise, Tecan, Männedorf, Switzerland).
A general note: Tetrazolium dyes change colour on reduction, which living cells bring about.

The nature of data set [2]: Methylselenol (CH3SeH) release by hydrolysis, quantified with DTNB (Ellman's reagent). The class given is physicochemical. To be noted: 100 μM compound, 100 μM DTNB, 100 mM phosphate buffer, 1 mM EDTA, pH 8, followed over 72 h. The source says:
The new compounds were designed as CH3SeH precursors. The chemical features of the selenoester functional group facilitate a nucleophilic attack (i.e., with water) which would deliver the CH3SeH residue. In order to verify if CH3SeH could be released from the molecules by hydrolysis and if the rate differed among the compounds, the reaction of CH3SeH with 5,5′-dithiobis(2-nitrobenzoic acid) (DTNB or Ellman’s reagent) in aqueous environment was monitored. Briefly, when the disulfide bridge of DTNB reacts with thiols or selenols, 2-nitro-5-thiobenzoate (TNB^2−) is released and the mixed disulfide or selenylsulfide is formed. Each released CH3SeH produces one yellow TNB^2− species, whose absorbance can be quantified at 412 nm (Figure 2A).
A stock solution of the compounds was prepared in anhydrous DMSO (10 mM). The compounds were placed in a 96-well plate in a final concentration of 100 μM. Reaction started after adding 200 μL of an aqueous 100 mM Na2HPO4 buffer (1 mM EDTA, pH = 8), containing 100 μM of DTNB from a freshly prepared 10 mM ethanolic stock, which were added just before starting the reaction. The DTNB concentration was quantified with a cysteine standard curve ([…]). Blanks for the compounds in the absence of DTNB were also included as well as a blank to measure the slow but spontaneous hydrolysis of DTNB, which was further subtracted from all the values. Absorbance was read at 412 nm in a FLUOstar Omega microplate reader (BMG LabTech, Ortenberg, Germany). Results represent means of triplicate values ± SD.
Figure 2 CH3SeH release rates are dependent on the chemical features of the molecule. Released CH3SeH was quantified through reaction with Ellman’s reagent (DTNB). (A) Proposed reaction between CH3SeH and DTNB; (B) Quantification of TNB^2− at different times. The compounds were tested at 100 μM in 200 μL of 100 mM phosphate buffer (1 mM EDTA, pH = 8). DTNB concentration was also 100 μM. Absorbance was followed at 412 nm over 72 h. A cysteine standard curve (7.5–150 μM) was used to calculate the concentration of TNB^2− over time. Compounds showing less than 15% hydrolysis at 72 h are not included, except for compound 5 as example. Error bars indicate SD of triplicates.

Data set [3] has as its system HTB-54 (lung carcinoma). The data set is described as follows: MTT viability assay, HTB-54. The class given is cell-based. The note with it: HTB-54, 72 h, MTT; for CC50: read-out: LC50 (the source's name). How it is done:
as §1, §2, §3

In data set [4] the test system is HT-29 (colorectal adenocarcinoma). The data set is described as follows: MTT viability assay, HT-29. Format: cell-based. The note with it: HT-29, 72 h, MTT; for CC50: read-out: LC50 (the source's name). On the procedure:
as §1, §2, §3

Data set [5] has as its system BEAS-2B (non-malignant bronchial epithelial). The data set is described as follows: MTT viability assay, BEAS-2B. Format: cell-based. The note with it: BEAS-2B non-malignant, 72 h, MTT; for CC50: read-out: LC50 (the source's name). On the procedure: as §1, §2, §3
Data set [6] concerns MCF7 (mammary adenocarcinoma). The experiment in a line: MTT viability assay, MCF7. Format: cell-based. The note with it: MCF7, 72 h, MTT; for CC50: read-out: LC50 (the source's name). On the procedure: as §1, §2, §3
In data set [7] the test system is K-562 (chronic myelogenous leukemia). The experiment in a line: MTT viability assay, K-562. The class given is cell-based. To be noted: K-562, 72 h, MTT; for CC50: read-out: LC50 (the source's name). On the procedure:
as §1, §2, §3

Data set [8] relates to 184B5 (non-malignant mammary epithelium). The experiment in a line: MTT viability assay, 184B5. To be noted: 184B5 non-malignant, 72 h, MTT; for CC50: read-out: LC50 (the source's name). Format: cell-based. How it is done: as §1, §2, §3

The term GI50 denotes the concentration giving 50% growth inhibition. Low readings indicate greater sensitivity of the cells, high ones lower sensitivity of the cells. By TGI is commonly meant the concentration giving total growth inhibition. Higher therefore signals less potent growth arrest.

“Methyl 6-bromochromone-2-carboselenoate [Compound 11]”: the GI50 in data set [1] was found to be 5.3 ± 1.1 µM; in data set [3], 9.4 ± 3.5 µM; in data set [4] it was 4.9 ± 0.7 µM; in data set [5], 2.4 ± 0.9 µM; in data set [6] it was 4.2 ± 0.7 µM; in data set [7], 81.9 ± 4 µM. Besides, in data set [8], the GI50 turned out to be 3.3 ± 0.1 µM. Also, the TGI in data set [1] is 17.1 ± 5.0 µM; in data set [3], 52.3 ± 2.9 µM; in data set [4], 9.6 ± 3 µM; in data set [5], 5.0 ± 0.8 µM; in data set [6], 8.2 ± 1.1 µM; in data set [7], >100 µM. This substance displayed a TGI in data set [8] of 6.7 ± 0.9 µM. The CC50 in data set [1] was 66.2 ± 2.4 µM; in data set [3], > 100 µM; in data set [4], 74.4 ± 4.2 µM; in data set [5] it was 7.6 ± 0.7 µM; in data set [6] it was > 100 µM; in data set [7], > 100 µM. Also, in data set [8], the CC50 amounted to 14.5 ± 4.5 µM. Moreover, the “CH3SeH release / hydrolysis rate” value in data set [2] was “completely hydrolyzed within the first two hours of incubation”.

For the substance “Methyl 5-isoxazolecarboselenoate [Compound 6]”, the GI50 was 4.5 ± 1.3 µM in data set [1]; 9 ± 2.8 µM in data set [3]; 5 ± 0.8 µM in data set [4]; 3 ± 0.9 µM in data set [5]; 3.5 ± 1 µM in data set [6]; 18.5 ± 7.1 µM in data set [7]. The substance further came in with a 50% growth inhibitory concentration (GI50) in data set [8] of 2.7 ± 0.2 µM. Further, the CC50 in data set [1] came out at 61.5 ± 14 µM; in data set [3], 82 ± 1.3 µM; in data set [4] it was 90.8 ± 15 µM; in data set [5] it was 8.2 ± 0.5 µM; in data set [6] it was 71.9 ± 3.2 µM; in data set [7], 98.1 ± 0.7 µM. The CC50 in data set [8] stood at 9.3 ± 2 µM. Further, the “CH3SeH release / hydrolysis rate” value in data set [2] was “completely hydrolyzed within the first two hours of incubation”. The concentration for total growth inhibition (TGI) in data set [3] is 43.9 ± 3.9 µM; in data set [4], 15.1 ± 6.7 µM; in data set [5], 5.6 ± 0.7 µM; in data set [6], 8.8 ± 0.7 µM; in data set [7] it was 58.3 ± 3.5 µM; in data set [8], 6.0 ± 0.4 µM.

“Methyl 4-nitrobenzoselenoate [Compound 1]”: the GI50 in data set [1] came out at 5.8 ± 0.7 µM; in data set [4] it was 5 ± 0.7 µM; in data set [5] it was 3.8 ± 0.3 µM; in data set [6] it was 4.1 ± 0.5 µM; in data set [7], 50.1 ± 2.3 µM; in data set [8], 3.4 ± 0.4 µM. Moreover, the TGI in data set [1] stood at 10.4 ± 2.3 µM; in data set [3], 50.5 ± 5.1 µM; in data set [4], 9.3 ± 1.4 µM; in data set [5] it was 6.4 ± 0.4 µM; in data set [6], 7.9 ± 0.9 µM; in data set [7] it was 85.3 ± 4.9 µM. For the same substance, the TGI in data set [8] was determined as 6.4 ± 1.1 µM. Further, the CC50 in data set [1] was 75.7 ± 3.3 µM; in data set [3] it was 78.6 ± 2.9 µM; in data set [4], 87.2 ± 5 µM; in data set [5], 9 ± 0.7 µM; in data set [6], 45 ± 4.6 µM; in data set [7], > 100 µM. Moreover, the CC50 in data set [8] stood at 9.3 ± 0.6 µM. The “CH3SeH release / hydrolysis rate” value in data set [2] was “more sustained release”.

For the substance “Methyl 3-quinolinecarboselenoate [Compound 9]”, the GI50 was 5.9 ± 0.5 µM in data set [1]; 7.8 ± 1.2 µM in data set [3]; 3.4 ± 0.2 µM in data set [4]; 4.1 ± 1 µM in data set [5]; 4.4 ± 0.8 µM in data set [6]; 39.5 ± 3.1 µM in data set [7]. It took 3.7 ± 0.5 µM to inhibit growth in data set [8] by half (GI50). For the same substance, the TGI in data set [1] was determined as 10.0 ± 1.9 µM; in data set [3], 33.0 ± 4.5 µM; in data set [4] it was 7.0 ± 0.2 µM; in data set [5], 7.1 ± 4.5 µM; in data set [6], 8.1 ± 1.2 µM; in data set [7], 72.6 ± 4.1 µM. The same substance displayed a TGI in data set [8] of 6.2 ± 0.4 µM. The CC50 in data set [1] is 84.1 ± 8.9 µM; in data set [3] it was 69.2 ± 2.7 µM; in data set [4], 37.2 ± 5 µM; in data set [5], 15.3 ± 9.1 µM; in data set [6], 48 ± 7.5 µM; in data set [7], > 100 µM. Besides, in data set [8], the CC50 came to 8.6 ± 0.4 µM. Moreover, the “CH3SeH release / hydrolysis rate” value in data set [2] was “more sustained release”.

These data come from publication PMC6152192, “Novel Methylselenoesters as Antiproliferative Agents” (Molecules : A Journal of Synthetic Chemistry and Natural …, 2017).
